Source: patent US11407767B2, “Heterocyclyl substituted pyrrolopyridines that are inhibitors of the CDK12 kinase” (The University of Nottingham, priority 2017, dated 2022)

Assays:
DM1 fibroblasts = assay: Nuclear foci assay; type: cell-based; details: Fibroblast; DM1 fibroblasts treated for 24 hours, 11 point dilution 20 μM-19 nM, in situ hybridisation with cy3 labelled CAG10 probe
Experimental: DM1 fibroblasts were treated with compounds in an 11 point dilution series from 20 μM-19 nM for 24 hours. Following treatment, fluorescent in situ hybridisation was performed with a cy3 labelled CAG10 probe, to visualize nuclear foci and cells were analysed on a Molecular Devices plate reader with customised MetaExpress software (Ketley, A. et al. (2014). Hum Mol Genet, 23: 1551-1562). Compounds that reduced nuclear foci in a concentration dependent manner, compared to DMSO treated cells were identified.

CDK12/CycK = CDK12/CycK (Homo sapiens, UniProt Q9NYV4); assay: Inhibition of CDK12 (ADP-Glo kinase assay); type: biochemical; details: 60 nM CDK12/CycK, 30 minutes pre-incubation, 1 μM ATP, 0.5 μM RBER-IRStide substrate, 1 h at 25° C., read-out: CDK12/cyclin K IC50
CDK12/CycK, sequence (Q9NYV4 whole entry): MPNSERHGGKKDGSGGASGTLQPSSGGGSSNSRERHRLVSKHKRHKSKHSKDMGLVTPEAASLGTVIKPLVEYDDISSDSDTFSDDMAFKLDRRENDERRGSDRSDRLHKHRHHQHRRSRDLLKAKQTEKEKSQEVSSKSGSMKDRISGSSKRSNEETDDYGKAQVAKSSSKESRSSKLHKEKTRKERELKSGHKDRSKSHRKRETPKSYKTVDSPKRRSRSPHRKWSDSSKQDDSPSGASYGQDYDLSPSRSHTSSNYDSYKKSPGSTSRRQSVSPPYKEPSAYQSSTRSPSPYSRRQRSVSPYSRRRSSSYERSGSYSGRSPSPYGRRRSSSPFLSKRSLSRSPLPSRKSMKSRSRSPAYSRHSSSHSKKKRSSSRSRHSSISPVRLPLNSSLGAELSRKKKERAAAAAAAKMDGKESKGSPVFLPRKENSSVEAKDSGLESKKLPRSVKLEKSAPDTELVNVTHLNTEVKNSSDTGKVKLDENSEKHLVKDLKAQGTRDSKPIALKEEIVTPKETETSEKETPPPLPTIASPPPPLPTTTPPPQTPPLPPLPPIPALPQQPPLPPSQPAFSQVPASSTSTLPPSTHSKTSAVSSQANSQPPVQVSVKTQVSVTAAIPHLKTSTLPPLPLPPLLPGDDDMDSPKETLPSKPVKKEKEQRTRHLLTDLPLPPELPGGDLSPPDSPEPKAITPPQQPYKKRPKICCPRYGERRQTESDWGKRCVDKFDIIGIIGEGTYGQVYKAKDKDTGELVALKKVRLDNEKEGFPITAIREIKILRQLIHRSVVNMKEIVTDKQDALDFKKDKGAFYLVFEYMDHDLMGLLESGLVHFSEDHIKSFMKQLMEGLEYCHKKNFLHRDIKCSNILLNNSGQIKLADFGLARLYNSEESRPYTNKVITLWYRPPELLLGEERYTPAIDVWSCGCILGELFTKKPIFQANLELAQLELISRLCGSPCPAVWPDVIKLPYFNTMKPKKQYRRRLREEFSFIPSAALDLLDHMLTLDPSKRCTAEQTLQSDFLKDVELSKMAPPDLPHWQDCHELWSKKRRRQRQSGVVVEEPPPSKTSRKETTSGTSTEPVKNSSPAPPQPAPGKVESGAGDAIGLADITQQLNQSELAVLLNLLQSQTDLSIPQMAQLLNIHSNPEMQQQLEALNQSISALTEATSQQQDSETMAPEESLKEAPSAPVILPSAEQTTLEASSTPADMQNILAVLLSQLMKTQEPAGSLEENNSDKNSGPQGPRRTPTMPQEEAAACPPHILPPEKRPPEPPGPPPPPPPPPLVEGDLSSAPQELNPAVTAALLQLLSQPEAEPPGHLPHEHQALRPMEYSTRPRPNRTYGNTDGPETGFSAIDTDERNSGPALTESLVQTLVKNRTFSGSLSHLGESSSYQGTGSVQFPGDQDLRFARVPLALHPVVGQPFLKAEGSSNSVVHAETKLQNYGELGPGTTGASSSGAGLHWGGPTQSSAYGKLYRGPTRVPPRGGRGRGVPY
CDK12/CycK, sequence (O75909 whole entry partner): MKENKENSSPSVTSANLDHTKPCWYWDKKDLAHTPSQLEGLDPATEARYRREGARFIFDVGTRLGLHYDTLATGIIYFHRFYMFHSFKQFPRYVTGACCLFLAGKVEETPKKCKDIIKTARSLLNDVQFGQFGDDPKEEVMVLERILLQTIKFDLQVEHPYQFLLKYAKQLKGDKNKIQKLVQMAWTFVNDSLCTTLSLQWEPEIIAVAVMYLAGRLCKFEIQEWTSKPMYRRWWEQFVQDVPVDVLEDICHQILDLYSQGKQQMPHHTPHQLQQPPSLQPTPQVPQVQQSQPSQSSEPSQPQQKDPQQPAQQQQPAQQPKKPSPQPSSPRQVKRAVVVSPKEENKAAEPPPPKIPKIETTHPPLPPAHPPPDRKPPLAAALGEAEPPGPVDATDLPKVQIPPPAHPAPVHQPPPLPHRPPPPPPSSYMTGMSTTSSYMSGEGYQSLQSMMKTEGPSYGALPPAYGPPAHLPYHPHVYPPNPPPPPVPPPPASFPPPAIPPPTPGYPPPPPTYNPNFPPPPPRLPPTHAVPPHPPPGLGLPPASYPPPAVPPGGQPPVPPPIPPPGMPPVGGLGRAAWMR
Procedure, shortened: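 ADP-Glo luminescence read after a 1 h, 25 °C reaction with 1 μM ATP and 0.5 μM RBER-IRStide peptide. Enzyme (60 nM) and compound were first pre-incubated 30 min; buffer 50 mM HEPES pH 7.5, 20 mM MgCl2, 3 mM MnCl2, 1% DMSO. IC50 fitted after blank subtraction.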

Structure (SMILES) | IC50 (DM1 fibroblasts) [nM] | IC50 (CDK12/CycK) [nM]
CNC(=O)c1cc2c(-c3cnn4ncccc34)ccnc2[nH]1 [Example 7, N-Methyl-4-(pyrazolo[1,5-b]pyridazin-3-yl)-1H-pyrrolo[2,3-b]pyridine-2-carboxamide] | 1000 to 10000 | 100 to 1000
C=CC(=O)Nc1cccc(C(=O)N2CCC(c3cc4c(-c5cnn6ncccc56)ccnc4[nH]3)C2)c1 (stereo not shown) [Example 141, N-(3-(3-(4-(Pyrazolo[1,5-b]pyridazin-3-yl)-1H-pyrrolo[2,3-b]pyridin-2-yl)pyrrolidine-1-carbonyl)phenyl)acrylamide] | < 1000 | < 100
C=CC(=O)Nc1ccc(C(=O)NCc2cc3c(-c4cnn5ncccc45)ccnc3[nH]2)cc1 [Example 57, 4-Acrylamido-N-((4-(pyrazolo[1,5-b]pyridazin-3-yl)-1H-pyrrolo[2,3-b]pyridin-2-yl)methyl)benzamide] | 1000 to 10000 | 100 to 1000
O=C(CCl)Nc1cccc(C(=O)N2CC[C@H](c3cc4c(-c5cnn6ncccc56)ccnc4[nH]3)C2)c1 [Example 160, (S)-2-Chloro-N-(3-(3-(4-(pyrazolo[1,5-b]pyridazin-3-yl)-1H-pyrrolo[2,3-b]pyridin-2-yl)pyrrolidine-1-carbonyl)phenyl)acetamide] | < 1000 | < 100
OCc1cc2c(-c3cnn4ncccc34)ccnc2[nH]1 [Example 11, (4-(Pyrazolo[1,5-b]pyridazin-3-yl)-1H-pyrrolo[2,3-b]pyridin-2-yl)methanol] | 1000 to 10000 | 100 to 1000
C[C@@H](Cl)C(=O)N1CCC[C@@H]1C(=O)N1CCC(c2cc3c(-c4cnn5ncccc45)ccnc3[nH]2)C1 (stereo partly drawn) [Example 70, (2R)-2-Chloro-1-((2R)-2-(3-(4-(pyrazolo[1,5-b]pyridazin-3-yl)-1H-pyrrolo[2,3-b]pyridin-2-yl)pyrrolidine-1-carbonyl)pyrrolidin-1-yl)propan-1-one] | 1000 to 10000 | 100 to 1000
C=CC(=O)Nc1cccc(C(=O)NCCc2cc3c(-c4cnn5ncccc45)ccnc3[nH]2)c1 [Example 36, 3-Acrylamido-N-(2-(4-(pyrazolo[1,5-b]pyridazin-3-yl)-1H-pyrrolo[2,3-b]pyridin-2-yl)ethyl)benzamide] | < 1000 | < 100
C=CC(=O)N1CCC[C@@H]1C(=O)NCCc1cc2c(-c3cnn4ncccc34)ccnc2[nH]1 [Example 33, (R)-1-Acryloyl-N-(2-(4-(pyrazolo[1,5-b]pyridazin-3-yl)-1H-pyrrolo[2,3-b]pyridin-2-yl)ethyl)pyrrolidine-2-carboxamide] | < 1000 | < 100
c1cc(-c2ccc3cn[nH]c3c2)c2cc[nH]c2n1 [Example 20, 6-(1H-Pyrrolo[2,3-b]pyridin-4-yl)-1H-indazole] | 10000 to 100000 | 100 to 1000
C=CC(=O)N1CCC[C@H]1C(=O)NCCc1cc2c(-c3cnn(C)c3)ccnc2[nH]1 [Example 94, (S)-1-Acryloyl-N-(2-(4-(1-methyl-1H-pyrazol-4-yl)-1H-pyrrolo[2,3-b]pyridin-2-yl)ethyl)pyrrolidine-2-carboxamide] | 10000 to 100000 | 100 to 1000
C=CC(=O)Nc1cccc(C(=O)N2CC[C@H](c3cc4c(-c5cnn6ncccc56)ccnc4[nH]3)C2)c1 [Example 151, (S)—N-(3-(3-(4-(Pyrazolo[1,5-b]pyridazin-3-yl)-1H-pyrrolo[2,3-b]pyridin-2-yl)pyrrolidine-1-carbonyl)phenyl)acrylamide] | < 1000 | < 100
